Structures are written as SMILES.

The target of this experiment is T1, human FXR (Homo sapiens, UniProt Q96RI1).
T1 construct: expressed in transfected cells; host or cells: HEK293 cells stably carrying a 5xGal4-response-element firefly luciferase reporter, transiently transfected with pcDNA3.1-Gal4-FXR
T1 sequence (Q96RI1 262-486 limits assumed): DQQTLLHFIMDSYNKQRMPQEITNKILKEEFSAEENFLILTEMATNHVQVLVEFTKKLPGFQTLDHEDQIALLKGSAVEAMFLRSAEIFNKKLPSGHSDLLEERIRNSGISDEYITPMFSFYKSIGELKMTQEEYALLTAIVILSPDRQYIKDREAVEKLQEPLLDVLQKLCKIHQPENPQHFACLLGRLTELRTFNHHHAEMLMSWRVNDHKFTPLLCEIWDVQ
As to the kind of experiment: transient human FXR/Gal4-luciferase reporter assay. The conditions noted are these: Gal4-hFXR LBD fusion, luciferase reporter in HEK293 cells; response relative to 8 μM GW-4064. It is filed as cell-based. The method, then:
A Gal4-hFXR fusion construct reporter system was used as the primary assay to characterize compound activity. A construct including 5 copies of the Gal4 promoter response element upstream of a firefly luciferase reporter cDNA was stably expressed in HEK293 cells. This reporter cell line was maintained in Dulbecco's Modified Eagle's medium (DMEM; Gibco) supplemented with 1% penicillin-streptomycin (P/S) solution, 500 μg/mL Zeocin and 10% charcoal/dextran-treated fetal bovine serum (cs-FBS) at 37° C. in a humidified 5% CO2 atmosphere. […] The day prior to transfection, the reporter cells in culture are detached from the plate with trypsin and plated into a T75 flask at a sufficient density to achieve approximately 90% confluence the next morning. […] The mixture is further diluted with 10 mL of a solution comprised of DMEM, 10% cs-FBS, and 1% P/S immediately prior to transferring to the cells. The maintenance culture media is aspirated from the cells and the final transfection mixture is added before the cells are incubated overnight at 37° C. in a humidified 5% CO2 atmosphere. This protocol can be scaled up, and the transiently transfected cells can be cryopreserved in an assay-ready format. For compound testing, 100 nL of the compounds (serial dilutions in DMSO) are dispensed with an Echo acoustic dispenser (Labcyte) into the wells of a Corning/Costar clear bottom 384-well white plate. The transfected cells are harvested, counted, and diluted such that 10-25,000 cells in 25 μL are plated into each well of the 384-well compound assay plate. The compound-treated cells are incubated overnight at 37° C. in a humidified 5% CO2 atmosphere. The next morning 25 μL of Steady-Glo (Promega) are added to each well of the plate, the mixture is incubated for 15 min. with shaking, and luminescence is measured on an Envision (Perkin Elmer) plate reader.
For orientation: Reporter assays use an easily measured gene product as a stand-in for the process of interest.
The EC50 is the concentration at which the effect is half-maximal. Low values mean a more potent agent, high ones a less potent agent. `CCOc1ccc(-c2cc(N(CC34CCC(c5noc(C(C)(F)F)n5)(CC3)CC4)C(=O)C3CCC(O)(C(F)(F)F)CC3)ccc2F)cc1` (single isomer, unassigned) [Example 165, N-((4-(5-(1,1-difluoroethyl)-1,2,4-oxadiazol-3-yl)bicyclo[2.2.2]octan-1-yl)methyl)-N-(4′-ethoxy-6-fluoro-[1,1′-biphenyl]-3-yl)-4-hydroxy-4-(trifluoromethyl)cyclohexane-1-carboxamide] showed an EC50 of 263 nM. Regarding `Cc1noc(-c2cccc(N(CC34CCC(c5nc(C)no5)(CC3)CC4)C(=O)C3CCCCC3)c2)n1` [Example 1, N-((4-(3-methyl-1,2,4-oxadiazol-5-yl)bicyclo[2.2.2]octan-1-yl)methyl)-N-(3-(3-methyl-1,2,4-oxadiazol-5-yl)phenyl)cyclohexanecarboxamide], the concentration for a half-maximal effect (EC50) came to 736 nM.

`COC(=O)c1noc(-c2cccc(N(CC34CCC(c5nc(C6CC6)no5)(CC3)CC4)C(=O)C3CCCCC3)c2)n1` [Example 2, Methyl 5-(3-(N-((4-(3-cyclopropyl-1,2,4-oxadiazol-5-yl)bicyclo[2.2.2]octan-1-yl)methyl)cyclohexanecarboxamido)phenyl)-1,2,4-oxadiazole-3-carboxylate] returned an EC50 of 211 nM. In the case of `CCc1noc(-c2cccc(N(CC34CCC(c5nc(C)no5)(CC3)CC4)C(=O)C3CCCCC3)c2)n1` [Example 3], the EC50 came to 158 nM. Turning to `CCc1noc(-c2cccc(N(CC34CCC(c5nc(C6CC6)no5)(CC3)CC4)C(=O)C3CCCCC3)c2)n1` [Example 4, N-((4-(3-cyclopropyl-1,2,4-oxadiazol-5-yl)bicyclo[2.2.2]octan-1-yl)methyl)-N-(3-(3-ethyl-1,2,4-oxadiazol-5-yl)phenyl)cyclohexanecarboxamide], the EC50 amounted to 49 nM.

`CCc1noc(-c2cccc(N(CC34CCC(c5nc(C6CC6)no5)(CC3)CC4)C(=O)C3CCC(F)(F)CC3)c2)n1` [Example 5, N-((4-(3-cyclopropyl-1,2,4-oxadiazol-5-yl)bicyclo[2.2.2]octan-1-yl)methyl)-N-(3-(3-ethyl-1,2,4-oxadiazol-5-yl)phenyl)-4,4-difluorocyclohexane-1-carboxamide] gave an EC50 of 799 nM.

For the compound `COc1ncc(-c2cccc(N(CC34CCC(c5nc(C)no5)(CC3)CC4)C(=O)C3CCCCC3)c2)o1` [Example 6, N-(3-(2-methoxyoxazol-5-yl)phenyl)-N-((4-(3-methyl-1,2,4-oxadiazol-5-yl)bicyclo[2.2.2]octan-1-yl)methyl)cyclohexanecarboxamide], the EC50 amounted to 118 nM. In turn, `COc1ncc(-c2cccc(N(CC34CCC(c5nc(C6CC6)no5)(CC3)CC4)C(=O)C3CCCCC3)c2)o1` [Example 7, N-((4-(3-cyclopropyl-1,2,4-oxadiazol-5-yl)bicyclo[2.2.2]octan-1-yl)methyl)-N-(3-(2-methoxyoxazol-5-yl)phenyl)cyclohexanecarboxamide] came in with an EC50 of 51 nM. The compound `CCOc1ncc(-c2cccc(N(CC34CCC(c5nc(C6CC6)no5)(CC3)CC4)C(=O)C3CCCCC3)c2)o1` [Example 8, N-((4-(3-cyclopropyl-1,2,4-oxadiazol-5-yl)bicyclo[2.2.2]octan-1-yl)methyl)-N-(3-(2-ethoxyoxazol-5-yl)phenyl)cyclohexanecarboxamide] displayed an EC50 of 19 nM.

`CCOc1ncc(-c2cccc(N(CC34CCC(c5nc(C6CC6)no5)(CC3)CC4)C(=O)C3CCC(F)(F)CC3)c2)o1` [Example 9, N-((4-(3-cyclopropyl-1,2,4-oxadiazol-5-yl)bicyclo[2.2.2]octan-1-yl)methyl)-N-(3-(2-ethoxyoxazol-5-yl)phenyl)-4,4-difluorocyclohexane-1-carboxamide] returned an EC50 of 142 nM. As for `CCOc1ncc(-c2cccc(N(CC34CCC(c5nc(C)no5)(CC3)CC4)C(=O)C3CCCCC3)c2)o1` [Example 10, N-(3-(2-ethoxyoxazol-5-yl)phenyl)-N-((4-(3-methyl-1,2,4-oxadiazol-5-yl)bicyclo[2.2.2]octan-1-yl)methyl)cyclohexanecarboxamide], it took 71 nM to reach a half-maximal effect (EC50). Consider `COc1cc(-c2cccc(N(CC34CCC(c5nc(C)no5)(CC3)CC4)C(=O)C3CCCCC3)c2)no1` [Example 11, N-(3-(5-methoxyisoxazol-3-yl)phenyl)-N-((4-(3-methyl-1,2,4-oxadiazol-5-yl)bicyclo[2.2.2]octan-1-yl)methyl)cyclohexanecarboxamide], for which the EC50 was found to be 660 nM.

In turn, `COc1cc(-c2cccc(N(CC34CCC(c5nc(C6CC6)no5)(CC3)CC4)C(=O)C3CCCCC3)c2)no1` [Example 12, N-((4-(3-cyclopropyl-1,2,4-oxadiazol-5-yl)bicyclo[2.2.2]octan-1-yl)methyl)-N-(3-(5-methoxyisoxazol-3-yl)phenyl)cyclohexanecarboxamide] yielded a 50% effective concentration (EC50) of 129 nM. Turning to `O=C(C1CCCCC1)N(CC12CCC(c3nc(C4CC4)no3)(CC1)CC2)c1cccc(-c2nc(C3CC3)no2)c1` [Example 13, N-((4-(3-cyclopropyl-1,2,4-oxadiazol-5-yl)bicyclo[2.2.2]octan-1-yl)methyl)-N-(3-(3-cyclopropyl-1,2,4-oxadiazol-5-yl)phenyl)cyclohexanecarboxamide], the midpoint of the response, the EC50, lay at 82 nM.

Regarding `O=C(C1CCC(F)(F)CC1)N(CC12CCC(c3nc(C4CC4)no3)(CC1)CC2)c1cccc(-c2nc(C3CC3)no2)c1` [Example 14, N-((4-(3-cyclopropyl-1,2,4-oxadiazol-5-yl)bicyclo[2.2.2]octan-1-yl)methyl)-N-(3-(3-cyclopropyl-1,2,4-oxadiazol-5-yl)phenyl)-4,4-difluorocyclohexane-1-carboxamide], the midpoint of the response, the EC50, lay at 272 nM.

Regarding `O=C(C1CCOCC1)N(CC12CCC(c3nc(C4CC4)no3)(CC1)CC2)c1cccc(-c2nc(C3CC3)no2)c1` [Example 15, N-((4-(3-cyclopropyl-1,2,4-oxadiazol-5-yl)bicyclo[2.2.2]octan-1-yl)methyl)-N-(3-(3-cyclopropyl-1,2,4-oxadiazol-5-yl)phenyl)tetrahydro-2H-pyran-4-carboxamide], a half-maximal effect (EC50) was put at 134 nM. To `CN1CCC(C(=O)N(CC23CCC(c4nc(C5CC5)no4)(CC2)CC3)c2cccc(-c3nc(C4CC4)no3)c2)CC1` [Example 17, N-((4-(3-cyclopropyl-1,2,4-oxadiazol-5-yl)bicyclo[2.2.2]octan-1-yl)methyl)-N-(3-(3-cyclopropyl-1,2,4-oxadiazol-5-yl)phenyl)-1-methylpiperidine-4-carboxamide] belongs 3020 nM.

For `O=C(C1CCS(=O)(=O)CC1)N(CC12CCC(c3nc(C4CC4)no3)(CC1)CC2)c1cccc(-c2nc(C3CC3)no2)c1` [Example 18, N-((4-(3-cyclopropyl-1,2,4-oxadiazol-5-yl)bicyclo[2.2.2]octan-1-yl)methyl)-N-(3-(3-cyclopropyl-1,2,4-oxadiazol-5-yl)phenyl)tetrahydro-2H-thiopyran-4-carboxamide 1,1-dioxide], it took 1170 nM to reach a half-maximal effect (EC50). As for `CCOC(=O)c1coc(-c2cccc(N(CC34CCC(c5nc(C)no5)(CC3)CC4)C(=O)C3CCCCC3)c2)n1` [Example 19, Ethyl 2-(3-(N-((4-(3-methyl-1,2,4-oxadiazol-5-yl)bicyclo[2.2.2]octan-1-yl)methyl)cyclohexanecarboxamido)phenyl)oxazole-4-carboxylate], a half-maximal response (EC50) required 1560 nM.
